Measured values reported in US6380215B1, “Beta-alanine derivative and a process for the preparation thereof” (Fujisawa Pharmaceutical Co., Ltd, priority 1993, dated 2002).

Columns and labels:
[1] = system: platelets in platelet rich plasma (PRP), aggregation induced by ADP; assay: Effect on Platelet Aggregation Induced by Adenosine Diphosphate (ADP); type: cell-based; settings: dose required for complete inhibition of platelet aggregation; human PRP 3×10^8 platelets/ml, ADP final 2.5 μM, 37° C., aggregometer
Experimental: Test 1: Effect on Platelet Aggregation Induced by Adenosine Diphosphate (ADP)
Platelet rich plasma (PRP) which contains 3×10^8 platelets/ml was prepared from human blood. To the 225 μl of PRP, 25 μl of drug solution* was added, and then stirred for 2 minutes at 37° C. To the solution 5 μl of ADP (final 2.5 μM) was added as an aggregation inducer. Aggregation was measured by using an aggregometer (NBS HEMA-TRACER 801). Activity of inhibitor (test compound) was expressed as IC100 value i.e. dose required for complete inhibition of platelet aggregation.
Drug solution* — — — Test compound was dissolved in water.

Compound	melting point [°C]	IC100 [1] [nM]
Cl.O=C(O)CCNC(=O)CC1CCCN(C(=O)C=C2CCNCC2)C1 (centres unmarked)	63	
C#C[C@H](CC(=O)OCc1oc(=O)oc1C)NC(=O)[C@@H]1CCCN(C(=O)CCC2CCNCC2)C1.Cl	70	
COC(=O)CCNC(=O)C1CCN(C(=O)CCC2CCN(C(=O)OC(C)(C)C)CC2)CC1	79	
COC(=O)CCNC(=O)CC1CCCN(C(=O)C=C2CCN(C(=O)OC(C)(C)C)CC2)C1 (centres unmarked)	121	
Cl.O=C(O)CCNC(=O)[C@@H]1CCCN(C(=O)CCC2CCNCC2)C1 [Example 21 (3), N-[(R)-1-{3-(4-piperidyl)propionyl}-3-piperidylcarbonyl]-β-alanine hydrochloride]	84	1000

Second part, led by results:

melting point [°C]	Compound	IC100 [1] [nM]
105 to 108	C[C@H](CC(=O)O)NC(=O)[C@@H]1CCCN(C(=O)CCC2CCNCC2)C1.Cl	
82	COc1ccc(CCNC(=O)[C@H](CC(=O)O)NC(=O)[C@@H]2CCCN(C(=O)CCC3CCNCC3)C2)cc1.Cl	
67	Cl.O=C(O)CC(NC(=O)[C@@H]1CCCN(C(=O)CCC2CCNCC2)C1)c1ccccc1 (some centres unmarked)	
156 to 157	CCCCCC(=O)N[C@@H](CNC(=O)[C@@H]1CCCN(C(=O)CCC2CCNCC2)C1)C(=O)O.Cl	
70 to 72	Cl.O=C(O)CCNC(=O)C1CCCN(C(=O)CCC2CCNCC2)C1 (centres unmarked)	
63 to 65	Cl.O=C(O)CCNC(=O)C1CCN(C(=O)CCC2CCNCC2)CC1	
73	Cl.O=C(O)CCNC(=O)CC1CCCN(C(=O)CC2CCNCC2)C1 (centres unmarked)	
75	COC(=O)C[C@H](N)C(=O)NC1CCCN(C(=O)CCC2CCN(C(=O)OCc3ccccc3)CC2)C1.Cl (some centres unmarked)	
